Reference: patent publication US20230340530A1, “Methods of Protecting RNA” (Pfizer Inc., priority 2020, published 2023)

Target: RNA samples (Chi18 or HCV IRES)
Experiment: Droplet Digital Polymerase Chain Reaction (ddPCR) assay of RNA protection
Type: biochemical
Settings: 50 mM Tris buffer pH 11.4, 16 hrs at 30° C. for Chi18 or 42° C. for HCV; table does not say which RNA; 600 µM to 0.018 µM compound, 2% DMSO; read-out: EC50 Values Obtained from the ddPCR Assay
Protocol: The ddPCR assays measured RNA integrity by converting intact RNA to cDNA by reverse transcription, then performing digital PCR in thousands of nanoliter-sized droplets for each sample. PCR was performed within each droplet, which allowed for more sensitive detection of subtle changes in RNA concentration compared to traditional PCR or qPCR. Additionally, primers/probes specific to the 5′ end of the RNA/cDNA transcript(s) were used to assess fragment integrity, i.e. degraded RNA had fewer 5′ positive droplets. The BioRad QX200 Droplet Digital PCR System was used for the ddPCR workflow.
RNA samples (Chi18 or HCV IRES) were diluted to 100 fg/µL in 50 mM Tris buffer pH 11.4. Boron compounds were tested in a dose-response format to determine EC50. A compound dilution plate that contained a 30 mM top concentration of compound in DMSO was serially (half-log) diluted 10 times. A quantity of 0.12 µL of this compound dilution plate was spotted into a 96-well PCR plate (Thermo). Sample RNAs were added (6 µL) and incubated with test compounds as described below. Final compound concentrations ranged from 600 µM to 0.018 µM in 2% DMSO.
For the degradation reaction, treated RNAs were incubated for 16 hrs at 30° C. for Chi18 samples or 42° C. for HCV samples. Upon completion of the degradation reaction, cDNA was made and ddPCR run for each sample (96 well plates). Positive 5′ droplet values were divided by the total accepted droplet values for each sample and a ratio value generated for each sample.
Data was imported into a database where percent (%) protection and compound EC50 were calculated and curated. […] EC50 was determined by using a four parameter logistic equation: Y=A+((B-A)/(1+(C/X)D)); where Y is percent protection, X is compound concentration, A and B are minimum and maximum asymptotes, respectively, C is EC50, and D is Hill slope.

Row | Compound | EC50 [µM]
1 | C[C@H]1c2c(NC(=O)c3ccc4c(c3)B(O)OC4)ccc(O)c2C(=O)C2=C(O)[C@]3(O)C(=O)C(C(N)=O)=C(O)[C@@H](N(C)C)[C@@H]3[C@@H](O)[C@@H]21 [PF-06968384, N-[(6aS,10S,10aR,11S,11aR, 12R)-8-carbamoyl-10-(dimethylamino)-4,6,6a,9,11-pentahydroxy-12-methyl-5,7-dioxo-5,6a,7,10,10a,11,11a,12-octahydrotetracen-1-yl]-1-hydroxy-1,3-dihydro-2,1-benzoxaborole-6-car boxamide] | 281
2 | C[C@H]1c2ccc(NCCC(=O)Nc3ccc4c(c3)OCCOB4O)c(O)c2C(=O)C2=C(O)[C@]3(O)C(=O)C(C(N)=O)=C(O)[C@@H](N(C)C)[C@@H]3[C@@H](O)[C@@H]21 [PF-06968559, (4S,4aR,5S,5aR,6R,12aS)-4-(dimethylamino)-3,5,10,12,12a-pentahydroxy-9-({3-[(1-hydroxy-3,4-dihydro-1H-2,5,1-benzodioxaborepin-7-yl)amino]-3-oxopropyl}amino)-8-methyl-1,11-dioxo-1,4,4a,5,5a,6,11,12a-oc tahydrotetracene-2-carboxamide] | 99.1
3 | Cc1cc(CNc2nc(N3CCC[C@@H](c4ccccc4C)C3)nc3[nH]ccc23)on1 [PF-00838447, N-[(3-methyl-1,2-oxazol-5-yl)methyl]-2-[(3S)-3-(2-methylphenyl)piperidin-1-yl]-7H-pyrrolo[2,3-d]pyrimidin-4-amine] | 388
4 | CN(C)c1cc(NC(=O)c2ccc3c(c2)B(O)OC3(C)C)c(O)c2c1C[C@H]1C[C@H]3[C@H](N(C)C)C(O)=C(C(N)=O)C(=O)[C@@]3(O)C(O)=C1C2=O [PF-06967791, N-[(5aR,6aS,7S,1 OaS)-9-carbamoyl-4,7-bis(dimethylamino)-1,8,10a,11-tetrahydroxy-10,12-dioxo-5,5a,6,6a,7,10,10a,12-octahydrotetracen-2-yl]-1-hydroxy-3,3-dimethyl-1,3-dihydro-2,1-benzoxaborole-6-carboxamide] | 55.6
5 | CN(C)c1cc(NC(=O)CCNC(=O)c2ccc3c(c2)COB3O)c(O)c2c1C[C@H]1C[C@H]3[C@H](N(C)C)C(O)=C(C(N)=O)C(=O)[C@@]3(O)C(O)=C1C2=O [PF-06967772, N-(3-{[(5aR,6aS,7S,10aS)-9-carbamoyl-4,7-bis(dimethylamino)-1,8,10a,11-tetrahydroxy-10,12-dioxo-5,5a,6,6a,7,10,10a,12-octahydrotetracen-2-yl]amino}-3-oxopropyl)-1-hydroxy-1,3-dihydro-2,1-benzoxaborole-5-carboxamide] | 286
6 | C[C@H]1c2ccc(NC(=O)CCC(=O)Nc3ccc4c(c3)B(O)OC4)c(O)c2C(=O)C2=C(O)[C@]3(O)C(=O)C(C(N)=O)=C(O)[C@@H](N(C)C)[C@@H]3[C@@H](O)[C@@H]21 [PF-06968256, N-1-[(5R,5aR,6S,6aR,7S,10aS)-9-carbamoyl-7-(dimethylamino)-1,6,8,10a,11-pentahydroxy-5-methyl-10,12-dioxo-5,5a,6,6a,7,10,10a,12-octahydrotetracen-2-yl]-N~4~-(1-hydroxy-1,3-dihydro-2,1-benzoxaborol-6-yl)butanediamide] | 75.7
7 | CC1(C)COC(c2cccc(B(Oc3cccc4cccnc34)c3cccc(F)c3)c2)=N1 [PF-06956596, quinolin-8-yl [3-(4,4-dimethyl-4,5-dihydro-1,3-oxazol-2-yl)phenyl](3-fluorophenyl)borinate] | 300
8 | Clc1cc2c(cc1Cl)OB(c1ccc(Br)cc1)O2 [PF-04009301, 2-(4-bromophenyl)-5,6-dichloro-2H-1,3,2-benzodioxaborole] | 474
